Where two headings read alike, the source gives them in different places.
Key:
[1] = tested on: human foreskin fibroblasts; experiment: Luciferase activity after lipofection (RNAiMAX) of IVT RNA; type: cell-based; conditions: increasing concentrations
Protocol: 1.2 μg 5′-triphosphorylated and non-modified IVT RNA (0.8 μg encoding luciferase, 0.4 μg GFP) was packaged with 6 μl RNAiMAX transfection reagent (Invitrogen) and transfected into human foreskin fibroblasts and the medium supplemented with increasing concentrations of C13H8N4OS. At the indicated time points the cells were lysed and luciferase activity of the lysates was measured. […] This effect was dose-dependent.
To study whether C13H8N4OS could also enhance translation upon liposomal IVT RNA transfer, 1.2 μg 5′-triphosphorylated and non-modified IVT RNA (0.8 μg encoding luciferase, 0.4 μg GFP) was packaged with 6 μl RNAiMAX transfection reagent (Invitrogen) and transfected into human foreskin fibroblasts. After 3 h incubation with the transfection mixture, the medium was renewed and supplemented with increasing concentrations of C13H8N4OS. At the time points indicated in FIG. 15 the cells were lysed using luciferase stabilizing passive lysis buffer (Promega) according to the manufacturer's instructions. By the end of the time course, luciferase activity of all lysates was measured. […] This effect was dose-dependent. One of three independently performed experiments is shown. Thus, the effect of C13H8N4OS on translation of IVT RNA is not restricted to the delivery via electroporation. […]

[2] = tested on: immature dendritic cells (iDCs); experiment: GFP expression by flow cytometry in iDCs electroporated with IVT RNA; type: cell-based, human; conditions: 0.5 μM to 2 μM
Protocol: Human primary CD4 and CD 8 positive T-cells, as well as immature dendritic cells (iDCs) were isolated and electroporated with 5 μg IVT RNA encoding for destabilized GFP. iDCs were coelectroporated with 1 μg IVT RNA encoding for firefly luciferase. The cells were either left untreated or incubated with increasing amounts of C13H8N4OS (PKR-inhibitor) ranging from 0.5 μM to 2 μM as indicated in the panel legends. (A) T-cells and (B) iDCs were harvested at the indicated time points and GFP expression was assessed by flow cytometry. The mean fluorescence intensity (MFI) of the transfected, GFP-positive cell fractions is shown. (C) For luciferase assays, iDCs were plated in duplicates into 96-well-plates at a density of 10000 cells/well. Luciferase activity was measured at the indicated time points. Mean values of the duplicates are given.
For quantification of d2eGFP and eGFP protein, cells were washed in PBS, fixed using PBS supplemented with 2% formaldehyde and analyzed by flow cytometry on a FACS Canto II flow cytometer (BD Biosciences, Heidelberg, Germany). Gating was performed on living cells and mean fluorescence intensity (MFI) of GFP expressing cell populations was quantified using FlowJo software (Tree Star, Ashland, Oreg., USA). […] Gating was performed on living CD4+ and CD8+ T-cells and GFP expression and MFI of both T-cell subpopulations was determined by flow cytometry. […]

[3] = tested on: Primary human foreskin fibroblasts (BJ, CCD1079Sk); experiment: Intracellular FACS staining of reprogramming transcription factors after IVT RNA transfer; type: cell-based
Protocol: (AB) Primary human foreskin fibroblasts from different donors and suppliers (panel A: BJ fibroblasts; panel B: CCD1079Sk) and (C) MEFs were electroporated with 0.5 μg IVT RNA encoding for firefly luciferase and 1.25 μg IVT RNA encoding for eGFP and 2.5 μg of IVT RNA encoding for each of the individual reprogramming factors OCT4, SOX2, KLF4 and c-MYC. Electroporations were performed in 2 mm gap cuvettes using optimized parameters for each cell type. The cells were plated into 6-well-plates at a density of 250000 cells/well. The cells were either left untreated or incubated with increasing amounts of C13H8N4OS (PKR-inhibitor) ranging from 0.5 μM to 2 μM as indicated in the panel legend. The OCT4 expression was detected by intracellular staining with a fluorescently labeled antibody and measured by flow cytometry at the indicated time points. The mean fluorescence intensity (MFI) of the transfected OCT4-positive cell fractions is shown. (D) CCD1079Sk fibroblasts were electroporated with IVT RNA as in B and treated for 24 h or 48 h with 2 μM C13H8N4OS. 72 h post electroporation the cells were harvested and intracellular staining with fluorescent labeled antibodies reactive against the indicated transcription factors were performed. The MFI of the transcription factor-positive cell fractions are shown.
Intracellular FACS staining of OCT4, SOX2 and NANOG was done using the human pluripotent stem cell transcription factor analysis kit following the manufacturer's instructions (BD Bioscience). Briefly, 3-5×10^5 cells were harvested, washed twice with PBS and fixed for 20 min in 250 μl BD Cytofix Buffer (BD Biosciences) at room temperature. After the incubation cells were washed twice with PBS and permeabilized by washing twice with 1× Perm/Wash Buffer (BD Bioscience) followed by 10 minutes incubation in 50 μl 1× Perm/Wash at room temperature. […] Cells were resuspended in PBS supplemented with 2% formaldehyde and analyzed by flow cytometry as described above. […]

[4] = tested on: Primary human foreskin fibroblasts (HFF); type: cell-based; conditions: 24 h supernatants
[5] = tested on: Primary human foreskin fibroblasts (BJ, CCD1079Sk, HFF); type: cell-based; conditions: for luciferase expression after transient treatment: BJ and CCD1079SK
[6] = 2 μM for 24 h or 48 h, 72 h post electroporation

O=C1Nc2ccc3ncsc3c2/C1=C/c1c[nH]cn1 [C13H8N4OS, 6,8-dihydro-8-(1H-imidazol-5-ylmethylene)-7H-pyrrolo[2,3-g]benzothiazol-7-one]
dose dependence of the effect on translation of luciferase [1]: dose-dependent | translation of luciferase after liposomal IVT RNA transfer [1]: stabilizing effect on translation of luciferase | GFP expression (MFI) [2]: Neither in T-cells nor in iDCs PKR inhibition led to an increased GFP expression | OCT4 expression (MFI) ([3]; 0.5 μM to 2 μM permanently or 2 μM for 24 h or 48 h): strongly increased and stabilized | Nanog expression (MFI) [3, 6]: strongly increased and stabilized | SOX2 expression (MFI) [3, 6]: strongly increased and stabilized | secretion of IFNβ ([4]; 2 μM C13H8N4OS, HFF electroporated with eGFP IVT RNA): remarkably enhanced | secretion of IFNα ([4]; HFF, with or without 2 μM C13H8N4OS): not observed | luciferase expression ([5]; 0.5 μM to 2 μM, human fibroblasts, after electroporation): dose dependent increase | luciferase expression on additional application of inhibitor ([5]; 2 μM C13H8N4OS on CCD1079SK cotransfected with E3/K3, vs untreated controls): additive increase of luciferase expression and a stabilization | luciferase expression after transient treatment ([5]; 2 μM, 7 h incubation period): did not results in a significant increase of luciferase expression | luciferase expression after transient treatment ([5]; 2 μM, 24 h treatment): rapidly reversed after removal of the inhibitors | luciferase expression after transient treatment ([5]; 2 μM, 48 h treatment): less efficient than a permanent treatment | luciferase expression from modified (5mC and PU) IVT RNA ([5]; 2 μM, CCD1079Sk, 7 h to 72 h): further increases and stabilizes | luciferase expression from unmodified IVT-RNA ([5]; 2 μM, CCD1079Sk, 7 h to 72 h): greatly enhanced and stabilized | duration of high luciferase expression levels ([5]; 2 μM, permanent inhibition): 5 days | stabilization of luciferase expression ([5]; highest concentration used (2 μM)): high level of stabilization

Source: patent US20140030808A1, “Method for Cellular RNA Expression” (BIONTECH AG, priority 2010, published 2014)
